The source of these data is BindingDB's records for aid1799747 (Csar, 2012).

This experiment deals with T1, UDP-3-O-acyl-N-acetylglucosamine deacetylase (Aquifex aeolicus (strain VF5), UniProt O67648).
T1 sequence (O67648 whole entry): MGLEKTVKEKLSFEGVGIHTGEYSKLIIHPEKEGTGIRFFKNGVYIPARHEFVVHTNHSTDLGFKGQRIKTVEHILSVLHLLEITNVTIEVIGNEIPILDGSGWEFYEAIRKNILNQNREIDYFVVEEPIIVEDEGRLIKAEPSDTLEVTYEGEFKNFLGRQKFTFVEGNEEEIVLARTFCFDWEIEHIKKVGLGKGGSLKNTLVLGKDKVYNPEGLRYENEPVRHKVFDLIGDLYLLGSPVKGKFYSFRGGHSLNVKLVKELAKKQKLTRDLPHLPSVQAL
The experiment in a line: OctetRed. The note with it: pH 7; 25 °C.

Consider `NC[C@H](NC(=O)c1ccc(-c2ccccc2)cc1)C(=O)NO` [CS249], for which binding was put at a Kd of 145 nM. On the same count and under the same terms, then `O=C(NO)[C@H]1COC(c2ccc(OC(F)(F)F)c(Cl)c2)=N1` [CS270], with 744 nM; and `NC[C@H](NC(=O)c1ccc(-c2ccc(Br)cc2)cc1)C(=O)NO` [CS250], with 29 nM; and `O=C(NO)c1csc(-c2ccc(OC(F)(F)F)c(Cl)c2)n1` [CS275], with 1820 nM. In turn, `C[C@@H](O)[C@H](NC(=O)c1ccc(C#CC#Cc2ccccc2)cc1)C(=O)NO` [CS257] returned an inhibition constant Ki of 1 nM.

The compound `CCCc1ccc(-c2ccc(C3=N[C@@H](C(=O)NO)CO3)cc2)cc1` [CS274] came in with a Kd of 415 nM. Same read-out and setting: then `C[C@@H](O)[C@H](NC(=O)c1ccc(-c2ccccc2)cc1)C(=O)NO` [CS263], with 14 nM. In turn, `C[C@@H](O)[C@H](NC(=O)c1ccc(-c2ccc(Br)cc2)cc1)C(=O)NO` [CS258] displayed a Ki of 1 nM. Compound `C[C@@H](O)[C@H](NC(=O)c1ccc(C#Cc2ccccc2)cc1)C(=O)NO` [CS259] yielded an inhibition constant Ki of 1 nM.

Take `NC[C@H](NC(=O)c1ccc(C#CC#Cc2ccccc2)cc1)C(=O)NO` [CS252]: the affinity, expressed as Ki, was 10 nM.

On to `O=C(NO)[C@H]1COC(c2cc3cc(F)ccc3[nH]2)=N1` [CS272], for which binding was characterised by a dissociation constant (Kd) of 772 nM. `O=C(NO)[C@H]1COC(c2ccc(F)c(C(F)(F)F)c2)=N1` [CS271] displayed a dissociation constant Kd of 443 nM.
